Assay results reported in US12421212B2, “Substituted benzenecarboxamides as IL-17A modulators” (DiCE Alpha, Inc., priority 2019, dated 2025).

Molecular target: T1, IL-17A/A (Homo sapiens, UniProt Q16552)
T1 construct: purchased Genscript Z03228
T1 sequence (Q16552 24-155): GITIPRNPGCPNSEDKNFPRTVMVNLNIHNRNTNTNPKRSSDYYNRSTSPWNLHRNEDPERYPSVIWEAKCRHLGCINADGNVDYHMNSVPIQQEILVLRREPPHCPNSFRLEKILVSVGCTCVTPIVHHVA
Experiment: IL-17A/A HEK-Blue Cell Assay
Assay type: cell-based
Conditions: HEK-Blue IL-17A reporter cell line, SEAP readout at A630, 20 hours incubation with IL-17A/A, top concentration 10 uM, 1 uM or 0.3 uM; for IC50: read-out: IL-17A/A inhibition (pIC50) (converted)

Structure (SMILES) | IC50 [nM] | IL-17A/A inhibition (pIC50)
CCC(=O)N[C@@H](C(=O)N1CCC(C)(O)CC1)[C@@H](C)c1ccc(NC(=O)[C@@H](NC(=O)c2ccnn2C(C)C)[C@H]2CC[C@H](C)CC2)c(F)c1 [Compound 377] | 10 to 100 | 
CCC(=O)N[C@H](Cc1ccc(NC(=O)[C@@H](NC(=O)c2cnc(CNC(C)=O)n2C)C2CCCCC2)c(F)c1)C(=O)N1CCN(C)CC1 [Compound 717] |  | X2b (compounds were evaluated up to 1 uM and inhibited activity at 1 uM by less than 20%)
CCC(=O)N[C@H](Cc1ccc(NC(=O)[C@@H](NC(=O)c2ccnn2CC)[C@H]2CC[C@H](C(F)(F)F)CC2)c(F)c1)C(=O)N1CCN(C)CC1 [Compound 732] |  | X2a (compounds were evaluated up to 1 uM and did not inhibit activity by >80%, however they showed some activity at 1 uM (less than 80% and more than 20%))
CCC(=O)N[C@@H](C(=O)N1CCN(C)CC1)C(OC)c1ccc(NC(=O)[C@@H](NC(=O)c2ccnn2CC)[C@H]2CC[C@H](C)CC2)c(F)c1 (single isomer, unassigned) [Compound 614] | 100 to 10000 | 
CCn1nccc1C(=O)N[C@H](C(=O)Nc1ccc([C@H](C)[C@@H](NC(=O)c2ccc(CN(C)C)o2)C(=O)N2CCN(C)CC2)cc1F)C1CCCCC1 [Compound 745] |  | X2b (compounds were evaluated up to 1 uM and inhibited activity at 1 uM by less than 20%)
CCC(=O)N[C@H](Cc1ccc(NC(=O)[C@@H](NC(=O)c2cnn3c2SCC3)C2CCCCC2)c(F)c1)C(=O)N1CCN(C)CC1 [Compound 688] | 100 to 10000 | 
CCn1nccc1C(=O)N[C@H](C(=O)Nc1ccc([C@H](C)[C@@H](NC(=O)NC2CC2)C(=O)N2CCN(C)CC2)cc1F)C1CCCCC1 [Compound 314] | 10 to 100 | 
[2H]C([2H])([2H])N1CCN(C(=O)[C@H](NC(=O)CC)[C@@H](C)c2ccc(NC(=O)[C@@H](NC(=O)c3ccnn3CC)[C@H]3CC[C@H](C)CC3)c(F)c2)CC1 [Compound 539] | < 10 | 
CCC(=O)NC(C(=O)N1CCN(C(C)C)CC1)[C@@H](C)c1ccc(NC(=O)[C@@H](NC(=O)c2ccnn2CC)[C@H]2CC[C@H](C)CC2)c(F)c1 (stereo partly shown) [Compound 664] |  | X3b (compounds were evaluated up to 0.3 uM and inhibited activity at 0.3 uM by less than 20%)
CCC(=O)N[C@H](Cc1ccc(NC(=O)[C@H](Cc2ccc(Cl)cc2)NC(=O)c2ccnn2CC)c(F)c1)C(=O)N1CCN(C)CC1 [Compound 722] |  | X2b (compounds were evaluated up to 1 uM and inhibited activity at 1 uM by less than 20%)
CCC(=O)N[C@@H](C(=O)N1CCN(C(C)(C)O)CC1)[C@@H](C)c1ccc(NC(=O)[C@@H](NC(=O)c2ccnn2CC)[C@H]2CC[C@H](C)CC2)c(F)c1 [Compound 424] |  | B (8>B≥7 as B)
CCC(=O)N[C@H](Cc1ccc(NC(=O)[C@@H](NC(=O)c2ccnn2CC)C2CCCCC2)c(F)c1)C(=O)N1C[C@@H]2C[C@H]1CN2C [Compound 696] |  | X2a (compounds were evaluated up to 1 uM and did not inhibit activity by >80%, however they showed some activity at 1 uM (less than 80% and more than 20%))
CCC(=O)N[C@@H](C(=O)N1CCN(C)CC1)[C@@H](C)c1ccc(NC(=O)[C@@H](NC(=O)C(F)(F)c2cncc(C#N)c2)C2CCCCCC2)c(F)c1 [Compound 261] | < 10 | 
CCC(=O)N[C@H](Cc1ccc(NC(=O)[C@@H](NC(=O)c2ccnn2CC)C2Cc3ccccc3C2)c(F)c1)C(=O)N1CCN(C)CC1 [Compound 728] |  | X2a (compounds were evaluated up to 1 uM and did not inhibit activity by >80%, however they showed some activity at 1 uM (less than 80% and more than 20%))
CCC(=O)N[C@@H](C(=O)N1CCN(C)CC1)[C@@H](C)c1ccc(NC(=O)[C@@H](NC(=O)C(F)(F)C2CCOCC2)[C@H]2CC[C@H](C)CC2)c(F)c1 [Compound 660] |  | X3a (compounds were evaluated up to 0.3 uM and did not inhibit activity by >80%, however they showed some activity at 0.3 uM (less than 80% and more than 20%))
CCC(=O)N[C@H](Cc1ccc(NC(=O)[C@H](Cc2ccccc2F)NC(=O)c2ccnn2CC)c(F)c1)C(=O)N1CCN(C)CC1 [Compound 725] |  | X2b (compounds were evaluated up to 1 uM and inhibited activity at 1 uM by less than 20%)
CCC(=O)N[C@H](Cc1ccc(NC(=O)[C@H](CCC2CCCCC2)NC(=O)c2ccnn2CC)c(F)c1)C(=O)N1CCN(C)CC1 [Compound 729] |  | X2b (compounds were evaluated up to 1 uM and inhibited activity at 1 uM by less than 20%)
CCn1nnnc1C(=O)N[C@H](C(=O)Nc1ccc([C@H](C)[C@@H](NC(=O)C(C)(F)F)C(=O)N2CCN(C)[C@H](C)C2)cc1F)[C@H]1CC[C@H](C)CC1 [Compound 605] | 10 to 100 | 
CCC(=O)N[C@@H](C(=O)N1CCC(C)(O)CC1)[C@@H](C)c1ccc(NC(=O)[C@@H](NC(=O)c2ccnn2CC)[C@H]2CC[C@H](C)CC2)c(F)c1 [Compound 343] | 10 to 100 | 
CCC(=O)N[C@@H](C(=O)N1CCN(C)CC1)[C@@H](C)c1ccc(NC(=O)C(NC(=O)c2ccnn2CC)C2CCc3ccccc32)c(F)c1 (single isomer, unassigned) [Compound 753] |  | X2b (compounds were evaluated up to 1 uM and inhibited activity at 1 uM by less than 20%)
CCC(=O)N[C@H](Cc1ccc(NC(=O)[C@@H](NC(=O)C(F)(F)c2ccc(OC)nc2)[C@H]2CC[C@H](C)CC2)c(F)c1)C(=O)N1CCN(C)CC1 [Compound 216] | 100 to 10000 | 

Second part, led by results:

IC50 [nM] | Structure (SMILES) | IL-17A/A inhibition (pIC50)
10 to 100 | CCC(=O)N[C@@H](C(=O)N1CCN(C)CC1)[C@@H](C)c1ccc(NC(=O)[C@@H](NC(=O)c2ccnn2CC)[C@H]2CC[C@H](C)CC2)c(F)c1 [Compound 234] | 
< 10 | CCC(=O)N[C@@H](C(=O)N1CCN(C)CC1)[C@@H](C)c1ccc(NC(=O)[C@@H](NC(=O)c2ccnn2CC)C2CCCCCC2)c(F)c1 [Compound 228] | 
< 10 | CCC(=O)N[C@@H](C(=O)N1CCN(C)CC1)[C@@H](C)c1ccc(NC(=O)[C@@H](NC(=O)C(F)(F)c2csc(C)c2)C2CCCCCC2)c(F)c1 [Compound 265] | 
< 10 | CC(C)c1nonc1C(=O)N[C@H](C(=O)Nc1ccc([C@H](C)[C@@H](NC(=O)c2cnns2)C(=O)N2CCN(C)CC2)cc1F)[C@H]1CC[C@H](C)CC1 [Compound 550] | 
10 to 100 | CCC(=O)N[C@@H](C(=O)N1CCN(C)CC1)[C@@H](C)c1ccc(NC(=O)[C@@H](NC(=O)C(F)(F)C2CCCCC2)C2CCCCC2)c(F)c1 [Compound 252] | 
< 10 | CCc1nonc1C(=O)N[C@H](C(=O)Nc1ccc([C@H](C)[C@@H](NC(=O)CC2CC2)C(=O)N2CCN(C)CC2)cc1F)[C@H]1CC[C@H](C)CC1 [Compound 492] | 
10 to 100 | C[C@@H](c1ccc(NC(=O)[C@@H](NC(=O)c2ccnn2C2CCCC2)[C@H]2CC[C@H](C)CC2)c(F)c1)[C@@H](NC(=O)C1(F)CC1)C(=O)N1CCOCC1 [Compound 380] | 
< 10 | CCc1nonc1C(=O)N[C@H](C(=O)Nc1ccc([C@H](C)[C@@H](NC(=O)N(C)C)C(=O)N2CCN(C)CC2)cc1F)[C@H]1CC[C@H](C)CC1 [Compound 514] | 
< 10 | CCC(=O)N[C@@H](C(=O)N1CCN(C)CC1)[C@@H](C)c1ccc(NC(=O)[C@@H](NC(=O)C(F)(F)c2cnn(CC)c2)C2CCCCCC2)c(F)c1 [Compound 267] | 
10 to 100 | C[C@@H](c1ccc(NC(=O)[C@@H](NC(=O)C(F)(F)c2cccc(C#N)c2)C2CCCCC2)c(F)c1)[C@@H](NC(=O)NC1CCC1)C(=O)N1CCN(C)CC1 [Compound 318] | 
100 to 10000 | CCC(=O)N[C@@H](C(=O)N1CCN(C)CC1)C(OC)c1ccc(NC(=O)[C@@H](NC(=O)c2ccnn2CC)[C@H]2CC[C@H](C)CC2)c(F)c1 (stereo partly shown) [Compound 572] | 
10 to 100 | CCC(=O)N[C@H](Cc1ccc(NC(=O)[C@@H](NC(=O)c2ccnn2C(C)C)C2CCCCCC2)c(F)c1)C(=O)N1CCN(C)CC1 [Compound 238] | 
10 to 100 | CCC(=O)N[C@H](Cc1ccc(NC(=O)[C@@H](NC(=O)c2coc3cc(OC)ccc23)C2CCCCC2)c(F)c1)C(=O)N1CCN(C)CC1 [Compound 239] | 
100 to 10000 | CCn1nccc1C(=O)N[C@H](C(=O)Nc1ccc([C@H](C)[C@@H](NC(=O)c2csnn2)C(=O)N2CCN(C)CC2)cc1F)C1CCCCC1 [Compound 644] | 
< 10 | CCn1nccc1C(=O)N[C@H](C(=O)Nc1ccc([C@H](C)[C@@H](NC(=O)C(C)C2CC2)C(=O)N2CCN(C)[C@H](C)C2)cc1F)[C@H]1CC[C@H](C)CC1 (stereo partly shown) [Compound 434] | 
100 to 10000 | CCC(=O)N[C@@H](C(=O)N1CCN(C)CC1)[C@@H](C)c1ccc(NC(=O)C(NC(=O)c2nonc2CC)C(CC)c2ccc(F)cc2)c(F)c1 (single isomer, unassigned) [Compound 557] | 
10 to 100 | CCC(=O)N[C@@H](C(=O)N1CCNC2(CC2)C1)[C@@H](C)c1ccc(NC(=O)[C@@H](NC(=O)c2nonc2CC)[C@H]2CC[C@H](C)CC2)c(F)c1 [Compound 444] | 
< 10 | CCC(=O)N[C@@H](C(=O)N1CCN(Cc2ccccn2)CC1)[C@@H](C)c1ccc(NC(=O)[C@@H](NC(=O)c2nonc2CC)[C@H]2CC[C@H](C)CC2)c(F)c1 [Compound 450] | 
10 to 100 | CCC(=O)N[C@@H](C(=O)N1CCN(C)CC1)[C@@H](C)c1ccc(NC(=O)[C@@H](NC(=O)C(F)(F)c2csc(C)c2)[C@H]2CC[C@H](C)CC2)c(F)c1 [Compound 276] | 
10 to 100 | CCn1nccc1C(=O)N[C@H](C(=O)Nc1ccc([C@H](C)[C@@H](NC(=O)OC2CC2)C(=O)N2CCN(C)CC2)cc1F)[C@H]1CC[C@H](C)CC1 [Compound 484] | 
< 10 | CCC(=O)N[C@@H](C(=O)N1CCN(C)CC1)[C@@H](C)c1ccc(NC(=O)C(NC(=O)c2nonc2CC)C(CC)c2ccc(F)cc2)c(F)c1 (single isomer, unassigned) [Compound 558] | 
100 to 10000 | CCC(=O)N[C@H](Cc1ccc(NC(=O)[C@@H](NC(=O)c2ccnn2CC)C2CCCCC2)c(Cl)c1)C(=O)N1CCN(C)CC1 [Compound 763] | 
